The values below come from ChEMBL document CHEMBL4665826, “Design, synthesis and biological evaluation of novel heptamethine cyanine dye-erlotinib conjugates as antitumor agents” (Bioorg Med Chem Lett, 2020).

One assay relates to NCI-H460. Put plainly: Antiproliferative activity against human NCI-H460 cells assessed as reduction in cell growth by MTT assay. It counts as functional, cell-based. In general terms: Tetrazolium dyes change colour on reduction, which living cells bring about.
A further assay has as its system NCI-H1299. Put plainly: Antiproliferative activity against human NCI-H1299 cells assessed as reduction in cell growth by MTT assay. It counts as functional, cell-based.
Assay [1] concerns A549. Nature of the assay: Antiproliferative activity against human A549 cells assessed as reduction in cell growth by MTT assay. The assay is classed as functional, cell-based.
The next assay has as its system MDA-MB-231. Put plainly: Antiproliferative activity against human MDA-MB-231 cells assessed as reduction in cell growth by MTT assay. The assay is classed as functional, cell-based.
In assay [2] the target is T1, Epidermal growth factor receptor (Homo sapiens, UniProt P00533). Nature of the assay: Inhibition of EGFR in human A549 cells measured after 30 hrs by ELISA. The assay is classed as cell-based. On the technique in general: In an ELISA, binding on a coated surface is turned into a signal by an enzyme label.
T1 sequence (P00533 whole entry): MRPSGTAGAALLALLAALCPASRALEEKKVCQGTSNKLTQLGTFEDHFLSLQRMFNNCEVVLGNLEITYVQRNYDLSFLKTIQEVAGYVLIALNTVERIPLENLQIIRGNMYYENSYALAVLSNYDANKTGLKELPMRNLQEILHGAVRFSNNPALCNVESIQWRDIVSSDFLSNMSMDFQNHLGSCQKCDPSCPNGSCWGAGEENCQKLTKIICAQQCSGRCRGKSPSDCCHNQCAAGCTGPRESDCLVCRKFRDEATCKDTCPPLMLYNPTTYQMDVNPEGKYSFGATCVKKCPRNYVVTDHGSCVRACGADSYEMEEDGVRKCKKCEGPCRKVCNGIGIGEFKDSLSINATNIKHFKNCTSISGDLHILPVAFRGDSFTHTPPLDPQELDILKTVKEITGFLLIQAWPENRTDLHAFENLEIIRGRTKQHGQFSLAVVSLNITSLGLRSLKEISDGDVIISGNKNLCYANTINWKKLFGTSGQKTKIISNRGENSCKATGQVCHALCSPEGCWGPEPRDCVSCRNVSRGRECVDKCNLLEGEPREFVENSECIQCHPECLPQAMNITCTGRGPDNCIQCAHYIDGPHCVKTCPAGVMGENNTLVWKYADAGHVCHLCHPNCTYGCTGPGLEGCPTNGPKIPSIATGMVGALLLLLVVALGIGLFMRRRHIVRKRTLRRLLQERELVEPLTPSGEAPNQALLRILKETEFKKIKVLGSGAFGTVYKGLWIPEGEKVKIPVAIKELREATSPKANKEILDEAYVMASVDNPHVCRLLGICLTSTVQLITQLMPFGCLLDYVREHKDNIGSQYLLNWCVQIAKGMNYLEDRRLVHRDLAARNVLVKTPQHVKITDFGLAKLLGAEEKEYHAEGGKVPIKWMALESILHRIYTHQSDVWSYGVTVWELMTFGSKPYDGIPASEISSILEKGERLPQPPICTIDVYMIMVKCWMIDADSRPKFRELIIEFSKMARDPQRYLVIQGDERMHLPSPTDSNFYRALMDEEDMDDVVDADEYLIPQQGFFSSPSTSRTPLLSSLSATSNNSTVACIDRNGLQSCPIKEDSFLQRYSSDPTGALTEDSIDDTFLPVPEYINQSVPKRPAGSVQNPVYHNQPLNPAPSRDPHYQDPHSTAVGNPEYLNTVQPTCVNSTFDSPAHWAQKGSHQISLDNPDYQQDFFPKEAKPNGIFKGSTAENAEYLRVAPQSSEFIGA
For a further assay, the system named is MCF-10A. Nature of the assay: Cytotoxicity against human MCF-10A cells assessed as reduction in cell growth by MTT assay. It counts as cell-based.
Assay [3] relates to A549. Put plainly: Potency index, ratio of erlotinib IC50 to test compound IC50 for antiproliferative activity against human A549 cells assessed as reduction in cell growth by MTT assay. The assay is classed as functional.
Assay [4] has as its target T1, Epidermal growth factor receptor. Put plainly: Potency index, ratio of erlotinib IC50 to test compound IC50 for EGFR in human A549 cells measured after 30 hrs by ELISA. The assay is classed as cell-based.

As for `C#Cc1cccc(Nc2ncnc3cc(OCCOC)c(OCCOC(=O)CCCCC[N+]4=C(/C=C/C=C/C=C/C=C5/N(CCCC)c6ccc(OC)cc6C5(C)C)C(C)(C)c5ccccc54)cc23)c1`, the IC50 – broadly, the concentration needed to halve the response being measured – in the assay on NCI-H460 turned out to be 549 nM; in the assay on NCI-H1299, 378 nM; with A549 [1] it was 388 nM; in the assay on MDA-MB-231, 306 nM.

`C#Cc1cccc(Nc2ncnc3cc(OCCOC)c(OCCOC(=O)CCCCC[N+]4=C(/C=C/C5=C(Cl)C(=C/C=C6/N(CCCCCC(=O)O)c7ccc(OC)cc7C6(C)C)/CCC5)C(C)(C)c5cc(OC)ccc54)cc23)c1`: the half-maximal inhibitory concentration (IC50) in the assay on NCI-H460 was determined as 2700 nM; in the assay with NCI-H1299, 2210 nM; in the assay on A549 [1], 1960 nM; in the assay on MDA-MB-231 it was 4230 nM.

For `C#Cc1cccc(Nc2ncnc3cc(OCCOC)c(OCCOC(=O)CCCCC[N+]4=C(/C=C/C=C/C=C/C=C5/N(CCCCCC(=O)O)c6ccc(C)cc6C5(C)C)C(C)(C)c5cc(C)ccc54)cc23)c1`, the IC50 in the assay with NCI-H460 amounted to 5650 nM; in the assay on NCI-H1299, 4150 nM; in the assay on A549 [1] it was 2100 nM; with MDA-MB-231, 6210 nM.

With `C#Cc1cccc(Nc2ncnc3cc(OCCOC)c(OCCOC(=O)CCCCC[N+]4=C(/C=C/C=C/C=C/C=C5/N(CCCC)c6ccc(OC)cc6C5(C)C)C(C)(C)c5cc(Br)ccc54)cc23)c1`, the IC50 was found to be 855 nM in the assay with NCI-H460, 246 nM in the assay on NCI-H1299, 2080 nM in the assay on A549 [1] and 833 nM in the assay on MDA-MB-231.

As for `C#Cc1cccc(Nc2ncnc3cc(OCCOC)c(OCCOC(=O)CCCCC[N+]4=C(/C=C/C=C/C=C/C=C5/N(CCCC)c6ccccc6C5(C)C)C(C)(C)c5cc(C)ccc54)cc23)c1`, the IC50 was 2120 nM in the assay on NCI-H460, 1740 nM in the assay with NCI-H1299, 2070 nM in the assay with A549 [1] and 313 nM in the assay with MDA-MB-231.

As to `C#Cc1cccc(Nc2ncnc3cc(OCCOC)c(OCCOC(=O)CCCCC[N+]4=C(/C=C/C=C/C=C/C=C5/N(CCCC)c6ccc(OC)cc6C5(C)C)C(C)(C)c5cc(C)ccc54)cc23)c1`, the IC50 stood at 827 nM with NCI-H460, 1350 nM in the assay on NCI-H1299, 678 nM with A549 [1] and 531 nM with MDA-MB-231.

For `C#Cc1cccc(Nc2ncnc3cc(OCCOC)c(OCCOC(=O)CCCCC[N+]4=C(/C=C/C=C/C=C/C=C5/N(CCCC)c6ccccc6C5(C)C)C(C)(C)c5cc(Br)ccc54)cc23)c1`, the IC50 with NCI-H460 was 655 nM; with NCI-H1299 it was 693 nM; in the assay on A549 [1], 579 nM; with MDA-MB-231, less than 125 nM.

Turning to `C#Cc1cccc(Nc2ncnc3cc(OCCOC)c(OCCOC(=O)CCCCC[N+]4=C(/C=C/C5=C(Cl)C(=C/C=C6/N(CCCCCC(=O)O)c7ccc(C)cc7C6(C)C)/CCC5)C(C)(C)c5cc(C)ccc54)cc23)c1`, the IC50 with NCI-H460 was determined as 816 nM; in the assay with NCI-H1299, 1550 nM; with A549 [1] it was 2380 nM; with MDA-MB-231 it was 3360 nM.

Consider `C#Cc1cccc(Nc2ncnc3cc(OCCOC)c(OCCOC(=O)CCCCC[N+]4=C(/C=C/C=C/C=C/C=C5/N(CCCC)c6ccccc6C5(C)C)C(C)(C)c5cc(C(F)(F)F)ccc54)cc23)c1`, for which the IC50 in the assay on NCI-H460 came to 813 nM; in assay [2], 205 nM; with NCI-H1299, 541 nM; in the assay with A549 [1], 230 nM; in the assay on MDA-MB-231, 356 nM.

Take `C#Cc1cccc(Nc2ncnc3cc(OCCOC)c(OCCOC(=O)CCCCC[N+]4=C(/C=C/C=C/C=C/C=C5/N(CCCCCC(=O)O)c6ccc(OC)cc6C5(C)C)C(C)(C)c5cc(OC)ccc54)cc23)c1`: the IC50 amounted to 5120 nM in the assay on NCI-H460, 14900 nM with NCI-H1299, 2590 nM with A549 [1] and 3300 nM in the assay with MDA-MB-231.

Take `C#Cc1cccc(Nc2ncnc3cc(OCCOC)c(OCCOC(=O)CCCCC[N+]4=C(/C=C/C=C/C=C/C=C5/N(CCCC)c6ccc(OC)cc6C5(C)C)C(C)(C)c5cc(C(F)(F)F)ccc54)cc23)c1.[Br-]`: the IC50 in the assay on NCI-H460 is 301 nM; in the assay on MCF-10A, 38600 nM; in assay [2] it was 124 nM; with NCI-H1299, 79 nM; in the assay with A549 [1], 177 nM; in the assay with MDA-MB-231, 311 nM. The “Ratio IC50” value (in the assay with A549 [3]; in assay [4]) was 14 throughout.

On to `C#Cc1cccc(Nc2ncnc3cc(OCCOC)c(OCCOC(=O)CCCCC[N+]4=C(/C=C/C=C/C=C/C=C5/N(CCCC)c6ccccc6C5(C)C)C(C)(C)c5ccccc54)cc23)c1`, for which the IC50 in the assay on NCI-H460 is 570 nM; in the assay with MCF-10A it was 33200 nM; in the assay with NCI-H1299, 2000 nM; in the assay on A549 [1] it was 631 nM; in the assay on MDA-MB-231, less than 125 nM.

On to `CC(=O)O[C@H]1C(=O)[C@@]2(C)[C@H]([C@H](OC(=O)c3ccccc3)[C@]3(O)C[C@H](OC(=O)[C@H](O)[C@@H](NC(=O)c4ccccc4)c4ccccc4)C(C)=C1C3(C)C)[C@]1(OC(C)=O)CO[C@@H]1C[C@@H]2O` [PACLITAXEL], for which the IC50 with NCI-H460 is less than 1 nM; in the assay with NCI-H1299, 5 nM; in the assay on A549 [1], less than 1 nM; in the assay with MDA-MB-231, less than 25 nM.

`C#Cc1cccc(Nc2ncnc3cc(OCCOC)c(OCCOC(=O)CCCCC[N+]4=C(/C=C/C5=C(Cl)C(=C/C=C6/N(CCCCCC(=O)O)c7ccccc7C6(C)C)/CCC5)C(C)(C)c5ccccc54)cc23)c1`: the IC50 was found to be 15200 nM with NCI-H460, 6960 nM with NCI-H1299, 9040 nM with A549 [1] and 4310 nM with MDA-MB-231.

Regarding `C#Cc1cccc(Nc2ncnc3cc(OCCOC)c(OCCOC(=O)CCCCC[N+]4=C(/C=C/C=C/C=C/C=C5/N(CCCCCC(=O)O)c6ccccc6C5(C)C)C(C)(C)c5ccccc54)cc23)c1`, the IC50 in the assay with NCI-H460 was 7250 nM; with NCI-H1299, 5140 nM; in the assay with A549 [1], 1130 nM; with MDA-MB-231, 1620 nM.

In the case of `C#Cc1cccc(Nc2ncnc3cc(OCCOC)c(OCCOC(=O)CCCCC[N+]4=C(/C=C/C5=C(Cl)C(=C/C=C6/N(CCCCCC(=O)O)c7ccc(Br)cc7C6(C)C)/CCC5)C(C)(C)c5cc(Br)ccc54)cc23)c1`, the IC50 with NCI-H460 was 13700 nM; with NCI-H1299, 17600 nM; with A549 [1] it was 7330 nM; in the assay on MDA-MB-231, 609 nM.

For the compound `C#Cc1cccc(Nc2ncnc3cc(OCCOC)c(OCCOC(=O)CCCCC[N+]4=C(/C=C/C=C/C=C/C=C5/N(CCCC)c6ccccc6C5(C)C)C(C)(C)c5cc(OC)ccc54)cc23)c1`, the IC50 in the assay on NCI-H460 is 2470 nM; with NCI-H1299, 680 nM; in the assay on A549 [1] it was 3940 nM; in the assay with MDA-MB-231, less than 125 nM.

As to `C#Cc1cccc(Nc2ncnc3cc(OCCOC)c(OCCOC(=O)CCCCC[N+]4=C(/C=C/C=C/C=C/C=C5/N(CCCC)c6ccc(OC)cc6C5(C)C)C(C)(C)c5cc(OC)ccc54)cc23)c1`, the IC50 in the assay with NCI-H460 was 217 nM; in the assay with NCI-H1299 it was 110 nM; in the assay with A549 [1], 455 nM; in the assay with MDA-MB-231, less than 125 nM.
